Measured values from PMC6152123, “Sites for Dynamic Protein-Carbohydrate Interactions of O- and C-Linked Mannosides on the E. coli FimH Adhesin” (Molecules : A Journal of Synthetic Chemistry and Natural …, 2017).
Where two headings read alike, the source gives them in different places.

How the values were obtained:
FimH lectin domain [1] = target: T1, FimH lectin domain (Escherichia coli, UniProt P08191); assay: biochemical; format: binding, E. coli strain J96; settings: for fold by which inhibition potential exceeds parent 115: Table 5; for Kd SPR (nM): Table S2
T1 sequence (P08191 22-179 limits assumed): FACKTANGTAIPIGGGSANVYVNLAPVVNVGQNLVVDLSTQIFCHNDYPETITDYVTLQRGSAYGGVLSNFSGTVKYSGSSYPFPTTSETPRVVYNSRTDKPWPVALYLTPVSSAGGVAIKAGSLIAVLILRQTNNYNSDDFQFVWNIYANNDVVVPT

FimH = settings: Table S2; read-out: Kd ITC (converted); cited from earlier work
FimH lectin domain [2] = target: T1, FimH lectin domain; settings: cited from earlier work
[3] = Kd (nM), Table 4, SPR detection, sulfonamide and amide spacers
[4] = Kd (nM), Table 5, SPR, C-linked mannopyranosides
[5] = Kd SPR (nM), solution affinity by SPR competition, Tables 1-3
[6] = Table 5, SPR, C-linked mannopyranosides

O=S(=O)(NCCO[C@H]1O[C@H](CO)[C@@H](O)[C@H](O)[C@@H]1O)c1ccccc1 [Compound 70]
Kd (FimH lectin domain [1]; [3]): 146 ± 26 nM

O=[N+]([O-])c1ccc(S(=O)(=O)NCCO[C@H]2O[C@H](CO)[C@@H](O)[C@H](O)[C@@H]2O)cc1 [Compound 71]
Kd (FimH lectin domain [1]; [3]): 408 ± 52 nM

Cc1ccc(S(=O)(=O)NCCO[C@H]2O[C@H](CO)[C@@H](O)[C@H](O)[C@@H]2O)cc1 [Compound 72]
Kd (FimH lectin domain [1]; [3]): 168 ± 64 nM

CC(C)(C)c1ccc(S(=O)(=O)NCCO[C@H]2O[C@H](CO)[C@@H](O)[C@H](O)[C@@H]2O)cc1 [Compound 73]
Kd (FimH lectin domain [1]; [3]): 122 ± 11 nM

CC(C)c1cc(C(C)C)c(S(=O)(=O)NCCO[C@H]2O[C@H](CO)[C@@H](O)[C@H](O)[C@@H]2O)c(C(C)C)c1 [Compound 74]
Kd (FimH lectin domain [1]; [3]): 37 ± 5 nM

O=S(=O)(NCCO[C@H]1O[C@H](CO)[C@@H](O)[C@H](O)[C@@H]1O)c1cccc2ccccc12 [Compound 75]
Kd (FimH lectin domain [1]; [3]): 148 ± 18 nM

C=CC[C@H]1O[C@H](CO)[C@@H](O)[C@H](O)[C@@H]1O [Compound 78]
Kd (FimH lectin domain [1]; [4]): 118 ± 20 nM

O=C(C[C@H]1O[C@H](CO)[C@@H](O)[C@H](O)[C@@H]1O)Nc1ccccc1 [Compound 91]
Kd (FimH lectin domain [1]; [3]): 372 ± 26 nM

O=C(C[C@H]1O[C@H](CO)[C@@H](O)[C@H](O)[C@@H]1O)NCc1ccccc1 [Compound 92]
Kd (FimH lectin domain [1]; [3]): 397 ± 83 nM

O=C(C[C@H]1O[C@H](CO)[C@@H](O)[C@H](O)[C@@H]1O)NCCCc1ccccc1 [Compound 93]
Kd (FimH lectin domain [1]; [3]): 105 ± 44 nM | fold rise of FimH inhibitory capacity versus 91 and 92 (FimH lectin domain [1]; SPR Kd): 4 fold

CC(=O)Nc1ccc(NC(=O)C[C@H]2O[C@H](CO)[C@@H](O)[C@H](O)[C@@H]2O)cc1 [Compound 94]
Kd (FimH lectin domain [1]; [3]): 227 ± 54 nM

O=C(C[C@H]1O[C@H](CO)[C@@H](O)[C@H](O)[C@@H]1O)Nc1ccc(O)cc1 [Compound 95]
Kd (FimH lectin domain [1]; [3]): 328 ± 63 nM

O=C(C[C@H]1O[C@H](CO)[C@@H](O)[C@H](O)[C@@H]1O)NCCc1ccc(O)cc1 [Compound 96]
Kd (FimH lectin domain [1]; [3]): 970 ± 382 nM

OC[C@H]1O[C@H](CCCSCc2ccccc2)[C@@H](O)[C@@H](O)[C@@H]1O [Compound 106]
Kd (FimH lectin domain [1]; [5]): 25 ± 6.3 nM

CCCCSCCC[C@H]1O[C@H](CO)[C@@H](O)[C@H](O)[C@@H]1O [Compound 107]
Kd (FimH lectin domain [1]; [5]): 22 ± 2.8 nM

CCCSCCC[C@H]1O[C@H](CO)[C@@H](O)[C@H](O)[C@@H]1O [Compound 108]
Kd (FimH lectin domain [1]; [5]): 36 ± 9 nM

CCSCCC[C@H]1O[C@H](CO)[C@@H](O)[C@H](O)[C@@H]1O [Compound 109]
Kd (FimH lectin domain [1]; [5]): 78 ± 5.6 nM

CC(C)SCCC[C@H]1O[C@H](CO)[C@@H](O)[C@H](O)[C@@H]1O [Compound 110]
Kd (FimH lectin domain [1]; [5]): 32 ± 4.1 nM

OC[C@H]1O[C@H](C/C=C/c2ccccc2)[C@@H](O)[C@@H](O)[C@@H]1O [Compound 115]
Kd (FimH lectin domain [1]; [4]): 182 ± 25 nM | fold more active than amide-linked analog 91 (FimH lectin domain [1]; SPR Kd): 2 fold

OC[C@H]1O[C@H](C/C=C/c2ccc(-c3ccccc3)cc2)[C@@H](O)[C@@H](O)[C@@H]1O [Compound 116]
Kd (FimH): 0.058 ± 0.014 µM | Kd (FimH lectin domain [1]; [4]): 17 ± 3.5 nM | fold by which inhibition potential exceeds parent 115 (FimH lectin domain [1]; SPR Kd): ~4 fold

OC[C@H]1O[C@H](C/C=C/c2ccccc2-c2ccccc2)[C@@H](O)[C@@H](O)[C@@H]1O [Compound 117]
Kd (FimH lectin domain [1]; [4]): 6.9 ± 5.7 nM | fold by which inhibition potential exceeds parent 115 (FimH lectin domain [1]; SPR Kd): ~26 fold

OC[C@H]1O[C@H](C/C=C/c2cccc3ccccc23)[C@@H](O)[C@@H](O)[C@@H]1O [Compound 118]
Kd (FimH): 0.023 ± 0.0055 µM | Kd (nM) (FimH lectin domain [1]; [6]): nf | Kd SPR (nM) (FimH lectin domain [1]): nf

OC[C@H]1O[C@H](CCCc2ccccc2)[C@@H](O)[C@@H](O)[C@@H]1O [Compound 119]
Kd (FimH lectin domain [1]; [4]): 49 ± 5.3 nM

OC[C@H]1O[C@H](CCCc2ccc(-c3ccccc3)cc2)[C@@H](O)[C@@H](O)[C@@H]1O [Compound 120]
Kd (nM) (FimH lectin domain [1]; [6]): nf | Kd SPR (nM) (FimH lectin domain [1]): nf

OC[C@H]1O[C@H](CCCc2ccccc2-c2ccccc2)[C@@H](O)[C@@H](O)[C@@H]1O [Compound 121]
Kd (FimH lectin domain [1]; [4]): 123 ± 21 nM

OC[C@H]1O[C@H](CCCc2cccc3ccccc23)[C@@H](O)[C@@H](O)[C@@H]1O [Compound 122]
Kd (nM) (FimH lectin domain [1]; [6]): nf | Kd SPR (nM) (FimH lectin domain [1]): nf

CCC[C@H]1O[C@H](CO)[C@@H](O)[C@H](O)[C@@H]1O [Compound 123]
Kd (FimH lectin domain [1]; [4]): 266 ± 26 nM

CCCCCCO[C@H]1O[C@H](CO)[C@@H](O)[C@H](O)[C@@H]1O [hexyl]
Kd (FimH lectin domain [2]; solution affinity by SPR, read-out: Kd SPR): 0.01 µM

CC(=O)N[C@H]1[C@H](O[C@H]2[C@H](O)[C@@H](NC(C)=O)C(O)O[C@@H]2CO)O[C@H](CO)[C@@H](O[C@@H]2O[C@H](CO[C@H]3O[C@H](CO)[C@@H](O)[C@H](O)[C@@H]3O)[C@@H](O)[C@H](O[C@H]3O[C@H](CO)[C@@H](O)[C@H](O)[C@@H]3O)[C@@H]2O)[C@@H]1O (stereo partly shown) [oligomannoside-3, reference compound]
Kd (FimH lectin domain [2]; highest-affinity natural epitope for FimH, Fab IC10 chip, read-out: Kd): 0.02 µM | KA (FimH lectin domain [1]; Figure S19, fit of solution affinity model to inhibition curve): 49462067.1 M⁻¹ | Kd (FimH lectin domain [1]; Figure S19, fit of solution affinity model to inhibition curve, read-out: KD): 20.2 nM
